According to patent US5998433A, “Condensed compounds, their production and use” (Takeda Chemical Industries, Ltd., priority 1994, dated 1999):
Where a name gives a salt, the structure may show the parent alone.

How the values were obtained:
[1] = test system: Candida albicans IFO 0583; assay: Antifungal activity (agar plate dilution method), organism A; type: cell-based; details: IFO0583, 35° C., 20 hours, pH 7.0
Method: (§1) Determination of Antifungal Activity (Agar Plate Dilution Method)
(§2) RPMI 1640 (Gibco BRL) was dissolved in 0.3 M MOPS buffer, pH 7.0, to obtain a 2-fold dilution; this solution was filtered to remove germ cells (0.45 μm). Separately, 1.4% agar (Wako Pure Chemical Industries) was thermally sterilized (121° C., 15 minutes). This agar was mixed with an equal amount of the above 2-fold diluted RPMI 1640 (0.15 M MOPS, pH 7.0). To 9.9 ml of this RPMI 1640 (0.15 M MOPS, pH 7.0)-0.7% agar medium, 0.1 ml of a 100-fold diluted DMSO solution of the test drug was added; this mixture was prepared as an agar plate in a petri dish 9 cm in diameter. The drug (dissolved in DMSO to 100-fold dilution) was used in a series of 2-fold dilutions of a starting concentration of 64 μg/ml in the agar medium. For drug-free control, an agar medium containing 0.1 ml of DMSO or […] of sterile water was prepared. An inoculum of frozen cells was diluted with physiological saline and spot inoculated onto the agar medium (0.005 ml; 700-15,000 cfu) using a microplanter (Sakuma Seisakusho), followed by cultivation at 35° C. for 20 hours. Antifungal activity was assessed macroscopically; the minimum concentration for complete growth inhibition was expressed as MIC (minimum growth inhibitory concentration).

[2] = test system: Candida tropicalis IFO 0587; assay: Antifungal activity (agar plate dilution method), organism B; type: cell-based; details: IFO0587, 35° C., 20 hours, pH 7.0
Method: as §1, §2

[3] = test system: Candida tropicalis IFO 10241; assay: Antifungal activity (agar plate dilution method), organism C; type: cell-based; details: IFO10241, 35° C., 20 hours, pH 7.0
Method: as §1, §2

[4] = test system: Candida glabrata IFO 0622; assay: Antifungal activity (agar plate dilution method), organism D; type: cell-based; details: Nakaseomyces glabratus, IFO0622, 35° C., 20 hours, pH 7.0
Method: as §1, §2

Candida krusei IFO 0584 = assay: Antifungal activity (agar plate dilution method), organism E; type: cell-based; details: Pichia kudriavzevii, IFO0584, 35° C., 20 hours, pH 7.0
Method: as §1, §2

Candida krusei IFO 1162 = assay: Antifungal activity (agar plate dilution method), organism F; type: cell-based; details: Pichia kudriavzevii, IFO1162, 35° C., 20 hours, pH 7.0
Method: as §1, §2

Candida utilis IFO 0619 = assay: Antifungal activity (agar plate dilution method), organism G; type: cell-based; details: Williopsis jadinii, IFO0619, 35° C., 20 hours, pH 7.0
Method: as §1, §2

[5] = test system: Aspergillus fumigatus IFO 6344; assay: Antifungal activity (agar plate dilution method), organism H; type: cell-based; details: IFO6344, 35° C., 20 hours, pH 7.0
Method: as §1, §2

[6] = test system: Aspergillus niger IFO 4414; assay: Antifungal activity (agar plate dilution method), organism I; type: cell-based; details: IFO4414, 35° C., 20 hours, pH 7.0
Method: as §1, §2

[7] = Plasma HDL-cholesterol-elevating effect in Wistar fatty rats; type: in vivo, Female Wistar fatty rats; details: for HDL-cholesterol / Total cholesterol / Glucose / Triglyceride / Non-HDL-cholesterol: plasma, 1 week, stomach tube, mean ± standard deviation; for HDL-cholesterol: control 92.4 ± 9.2; for Total cholesterol: control 154 ± 13; for Glucose: control 285 ± 45; for Triglyceride: control 694 ± 192; for Non-HDL-cholesterol: total minus HDL, control 62.0 ± 12.5
Source text: Plasma HDL-cholesterol-elevating Effect in Wistar Fatty Rats
Female Wistar fatty rats (19 weeks of age, bred in Experimental Animals Unit, Takeda Chemical Industries, Ltd.) were given a 0.5% methyl-cellulosesolution of compound 31 by a stomach tube for 1 week. Blood was collected via the orbital sinus under non-fasting conditions; plasma total cholesterol and HDL-cholesterol were enzymatically determined using a commercial kit (produced by Wako Pure Chemical Industries, Ltd.). Non-HDL-cholesterol levels were obtained by subtracting HDL-cholesterol from total cholesterol levels. Triglyceride and glucose were also enzymatically determined using commercial kits (both produced by Iatron Laboratories, Inc.).

[8] = test system: Cholesterogenesis in Rat Liver; assay: Inhibition of cholesterogenesis in rat liver ([14C] acetic acid incorporation); type: in vivo, male Sprague-Dawley rats; details: by stomach tube, lower values indicate higher inhibitory activity
Method: Inhibition of Cholesterogenesis in Rat Liver
An aqueous solution of the test drug was administered, by a stomach tube, to male Sprague-Dawley rats at 5 weeks of age; 1 hour later, [^14 C] acetic acid was intravenously administered at a dose of 10 μCi per animal. One hour later, the animals were bled, livers were excised and a portion of liver was treated with a chloroform:methanol mixture to extract lipids. After the lipid fraction was saponified, sterol was extracted with petroleum ether, precipitated using digitonin and the radioactivity in the precipitate fraction was determined using a scintillation counter. The control group orally received 0.5% methyl cellulose solution alone.
The results are shown in Table 3 (lower percent control values indicate higher cholesterol synthesis inhibitory activity).

| SMILES | MIC [1] | MIC [2] | MIC [3] | MIC [4] | MIC (Candida krusei IFO 0584) | MIC (Candida krusei IFO 1162) | MIC (Candida utilis IFO 0619) | MIC [5] | MIC [6] | also measured |
| --- | --- | --- | --- | --- | --- | --- | --- | --- | --- | --- |
| CN(C)Cc1cc2c(o1)CCN(C(=O)CCCCCc1ccccc1)C2 [Example 6, 1-(2-dimethylaminomethyl-6,7-dihydro-4H-furo[3,2-c]pyridin-5-yl)-6-phenylhexan-1-one hydrochloride] | 16 µg/mL | 2 µg/mL | 16 µg/mL | 32 µg/mL | 4 µg/mL | 16 µg/mL | 2 µg/mL | 16 µg/mL | 8 µg/mL |  |
| CCCCCCCc1ccc(C(=O)N2CCc3cc(CN(C)C)oc3C2)cc1 [Example 21, N,N-dimethyl-[6-(4-heptylbenzoyl)-4,5,6,7-tetrahydrofuro[2,3-c]pyridin-2-ylmethyl]amine hydrochloride] | 2 µg/mL | 2 µg/mL | 2 µg/mL | 4 µg/mL | 1 µg/mL | 2 µg/mL | 1 µg/mL | 1 µg/mL | 1 µg/mL |  |
| CN(C)Cc1cc2c(o1)CN(C(=O)CCCCCc1ccc(F)cc1)CC2 [Example 27, 1-(2-dimethylaminomethyl-5,7-dihydro-4H-furo[2,3-c]pyridin-6-yl)-6-(4-fluorophenyl)hexan-1-one hydrochloride] | 16 µg/mL | 32 µg/mL | 64 µg/mL | 16 µg/mL | 4 µg/mL | 8 µg/mL | 2 µg/mL | 2 µg/mL | 2 µg/mL |  |
| CNCc1cc2c(o1)CN(C(=O)CCCCCc1ccccc1)CC2 [Example 38, 1-(2-methylaminomethyl-5,7-dihydro-4H-furo[2,3-c]pyridin-6-yl)-6-phenylhexan-1-one hydrochloride] |  |  |  |  |  |  |  |  |  | Cholesterol synthesis in rat liver, % of control ([8]; 30 mg/kg): 29.9 % Control |
| CCN(CC)Cc1cc2c(o1)CN(C(=O)c1ccc(C(=O)c3ccccc3)cc1)CC2 [Example 39, N,N-diethyl-[6-(4-benzoylbenzoyl)-4,5,6,7-tetrahydrofuro[2,3-c]pyridin-2-ylmethyl]amine hydrochloride] |  |  |  |  |  |  |  |  |  | Cholesterol synthesis in rat liver, % of control ([8]; 3.0 mg/kg): 64.6 % Control |
| CN(C)Cc1cc2c(o1)CCN(C(=O)OCCCCc1ccccc1)C2 [Example 48, N,N-dimethyl-[5-(4-phenylbutoxycarbonyl)-4,5,6,7-tetrahydrofuro[3,2-c]pyridin-2-ylmethyl]amine hydrochloride] | 16 µg/mL | 8 µg/mL | 64 µg/mL | 32 µg/mL | 8 µg/mL | 16 µg/mL | 2 µg/mL | 32 µg/mL | 16 µg/mL |  |
| CN(C)Cc1cc2c(o1)CCN(S(=O)(=O)CCCCCc1ccccc1)C2 [Example 53, N,N-dimethyl-[5-(5-phenylpentylsulfonyl)-4,5,6,7-tetrahydrofuro[3,2-c]pyridin-2-ylmethyl]amine hydrochloride] |  |  |  |  |  |  |  |  |  | Cholesterol synthesis in rat liver, % of control ([8]; 10 mg/kg): 42.3 % Control |

Continued, in another order:

| MIC [1] | MIC [2] | MIC [3] | MIC [4] | MIC (Candida krusei IFO 0584) | MIC (Candida krusei IFO 1162) | MIC (Candida utilis IFO 0619) | MIC [5] | MIC [6] | SMILES | also measured |
| --- | --- | --- | --- | --- | --- | --- | --- | --- | --- | --- |
| 8 µg/mL | 2 µg/mL | 32 µg/mL | 16 µg/mL | 4 µg/mL | 8 µg/mL | 2 µg/mL | 4 µg/mL | 4 µg/mL | CN(C)Cc1cc2c(o1)CCN(C(=O)CCCCCc1ccc(F)cc1)C2 [Example 28, 1-(2-dimethylaminomethyl-6,7-dihydro-4H-furo[3,2-c]pyridin-5-yl)-6-(4-fluorophenyl)hexan-1-one hydrochloride] |  |
| 8 µg/mL | 2 µg/mL | 16 µg/mL | 64 µg/mL | 16 µg/mL | 32 µg/mL | 4 µg/mL | 0.5 µg/mL | 0.5 µg/mL | CN(C)Cc1cc2c(o1)CN(C(=O)c1ccc(C(=O)c3ccc(Cl)cc3)cc1)CC2 [Example 31, N,N-dimethyl-[6-[4-(4-chlorobenzoyl)benzoyl]-4,5,6,7-tetrahydrofuro[2,3-c]pyridin-2-ylmethyl]amine hydrochloride] | Plasma HDL-cholesterol level ([7]; in words, Wistar fatty rats): increased significantly, depending on dose; Plasma glucose level ([7]; in words, Wistar fatty rats): not affected; Plasma non-HDL-cholesterol level ([7]; in words, Wistar fatty rats): not affected; Plasma total cholesterol level ([7]; in words, Wistar fatty rats): increased significantly, depending on dose; Plasma triglyceride level ([7]; in words, Wistar fatty rats): not affected; HDL-cholesterol ([7]; 0.1 mg/kg-day, p<0.05): 113 ± 15.4 mg/dL; Total cholesterol ([7]; 0.1 mg/kg-day): 175 ± 21 mg/dL; Glucose ([7]; 0.1 mg/kg-day): 251 ± 72 mg/dL; Triglyceride ([7]; 0.1 mg/kg-day): 599 ± 195 mg/dL; Non-HDL-cholesterol ([7]; 0.1 mg/kg-day): 62.5 ± 7.9 mg/dL; HDL-cholesterol ([7]; 0.3 mg/kg-day, p<0.05): 135 mg/dL; Total cholesterol ([7]; 0.3 mg/kg-day, p<0.05): 192 ± 24 mg/dL; Glucose ([7]; 0.3 mg/kg-day): 242 ± 39 mg/dL; Triglyceride ([7]; 0.3 mg/kg-day): 538 ± 155 mg/dL; Non-HDL-cholesterol ([7]; 0.3 mg/kg-day): 57.1 ± 10.7 mg/dL |
| 16 µg/mL | 8 µg/mL | 32 µg/mL | 32 µg/mL | 32 µg/mL | 32 µg/mL | 8 µg/mL | 2 µg/mL | 2 µg/mL | CN(C)Cc1cc2c(o1)CCN(C(=O)c1ccc(C(=O)c3ccc(Cl)cc3)cc1)C2 [Example 32, N,N-dimethyl-[5-[4-(4-chlorobenzoyl)benzoyl]-4,5,6,7-tetrahydrofuro[3,2-c]pyridin-2-ylmethyl]amine hydrochloride] |  |
| 32 µg/mL | 16 µg/mL | 64 µg/mL | 16 µg/mL | 8 µg/mL | 16 µg/mL | 4 µg/mL | 0.5 µg/mL | 0.25 µg/mL | CN(C)Cc1cc2c(o1)CN(C(=O)c1ccc(/C=C\c3ccccc3)cc1)CC2 [Example 33, (Z)-N,N-dimethyl-[6-(4-stilbenecarbonyl)-4,5,6,7-tetrahydrofuro[2,3-c]pyridin-2-ylmethyl]amine hydrochloride] |  |
| 8 µg/mL | 2 µg/mL | 8 µg/mL | 16 µg/mL | 16 µg/mL | 16 µg/mL | 2 µg/mL | 8 µg/mL | 4 µg/mL | CN(C)Cc1cc2c(o1)CN(C(=O)CCCCSc1ccccc1)CC2 [Example 43, 1-(2-dimethylaminomethyl-5,7-dihydro-4H-furo[2,3-c]pyridin-6-yl)-5-phenylthiopentan-1-one hydrochloride] |  |
| 16 µg/mL | 8 µg/mL | 8 µg/mL | 32 µg/mL | 8 µg/mL | 16 µg/mL | 4 µg/mL | 8 µg/mL | 8 µg/mL | CN(C)Cc1cc2c(o1)CCN(C(=O)CCCCSc1ccccc1)C2 [Example 44, 1-(2-dimethylaminomethyl-6,7-dihydro-4H-furo[3,2-c]pyridin-5-yl)-5-phenylthiopentan-1-one hydrochloride] |  |
